For this assay, the target named is T1, PI3Kδ (p110δ) (Homo sapiens, UniProt O00329).
T1 construct: gene PIK3CD
In words: FRET-based in vitro kinase assay; class I PI3K binding also seen in KinomeScan ATP-site competition panel ([…]). It is filed as biochemical.

T1 sequence (O00329 whole entry): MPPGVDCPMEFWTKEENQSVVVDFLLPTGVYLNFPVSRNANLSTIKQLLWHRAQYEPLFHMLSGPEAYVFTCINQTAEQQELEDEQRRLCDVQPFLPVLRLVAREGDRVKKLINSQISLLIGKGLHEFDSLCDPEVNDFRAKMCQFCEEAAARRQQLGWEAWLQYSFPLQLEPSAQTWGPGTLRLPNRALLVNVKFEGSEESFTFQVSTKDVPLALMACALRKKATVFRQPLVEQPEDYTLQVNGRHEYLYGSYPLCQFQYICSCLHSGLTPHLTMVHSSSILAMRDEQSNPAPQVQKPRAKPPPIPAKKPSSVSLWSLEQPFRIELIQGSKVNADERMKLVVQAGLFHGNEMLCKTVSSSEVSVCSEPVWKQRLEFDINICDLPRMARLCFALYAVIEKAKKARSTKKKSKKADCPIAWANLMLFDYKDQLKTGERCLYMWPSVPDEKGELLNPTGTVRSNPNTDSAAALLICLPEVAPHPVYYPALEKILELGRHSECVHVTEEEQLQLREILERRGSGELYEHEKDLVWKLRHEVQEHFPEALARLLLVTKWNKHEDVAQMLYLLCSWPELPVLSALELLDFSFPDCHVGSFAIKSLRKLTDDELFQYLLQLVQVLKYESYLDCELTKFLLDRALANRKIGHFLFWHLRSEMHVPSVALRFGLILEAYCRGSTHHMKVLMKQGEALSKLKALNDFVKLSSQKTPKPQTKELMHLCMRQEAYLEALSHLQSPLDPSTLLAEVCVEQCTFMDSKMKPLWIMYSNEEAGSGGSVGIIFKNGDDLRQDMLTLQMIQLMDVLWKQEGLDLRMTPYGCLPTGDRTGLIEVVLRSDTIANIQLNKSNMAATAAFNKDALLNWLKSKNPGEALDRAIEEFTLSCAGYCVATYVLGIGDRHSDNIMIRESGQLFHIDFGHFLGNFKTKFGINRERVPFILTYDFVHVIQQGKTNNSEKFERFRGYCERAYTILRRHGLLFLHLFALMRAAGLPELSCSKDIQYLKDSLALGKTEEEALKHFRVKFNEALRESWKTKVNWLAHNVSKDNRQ

One may read the IC50 as the concentration at which inhibition is half-maximal. Read a high IC50 as a need for much substance. GS-649443 [Compound B] had an IC50 of 0.28 nM.

The values are drawn from paper PMC4961957, “Dose-Dependent Suppression of Cytokine production from T cells by a Novel Phosphoinositide 3-Kinase Delta Inhibitor” (Scientific Reports, 2016).
